How the values were obtained:
[1] = Ketogenic activity after oral administration: plasma β-hydroxybutyrate in rats (Ranbut assay); conditions: 300 mg/kg po; for maximum increase of plasma concentration of β-hydroxybutyrate: male Sprague-Dawley rats, versus baseline (T=0)
Method: Male Sprague-Dawley rats (weight range 200-250 g; Clarles River, Margate, Kent) were used. The rats were group-housed in polypropylene cages at a temperature of 21±4° C., 55±20% humidity on a standard 12 hour light/dark cycle (lights on at 6.00 am). […] Animals were acclimatized to these conditions for at least one week before experimentation.
The sodium salt of D-β-hydroxybutyrate monomer (KTX 0101) was used as a comparator for assessing the bioavailability of the oligomeric compounds described here. […] Control animals received the appropriate vehicle (deionized water at 1 ml/kg) via the same route.
In Protocol A, blood (approx […]) was collected by cardiac puncture at 15, 30 and 60 minutes after dosing. In Protocol B, blood (approx 5 ml) was collected by cardiac puncture at 30, 120 and 240 minutes after dosing. In Protocol E, blood (approx 5 ml) was collected by cardiac puncture at 120 and 240 minutes after dosing. Animals were killed by CO2 asphyxiation and blood collected by cardiac puncture. Blood was placed into EDTA-coated plasma collection tubes (Sarstedt 5 ml K2E tubes) and kept on ice prior to centrifugation. Tubes were centrifuged in an Eppendorf 570R centrifuge at 4° C. for 5 minutes at 2500 rpm (1000 g). Plasma samples were initially frozen on dry ice and transferred to a −75° C. freezer until required for analysis.
Commercial clinical assay kits (Ranbut) for the determination of D-β-hydroxybutyrate were obtained from Randox Laboratories (Antrim, UK). The kit quantified NADH via the activity of β-hydroxybutyrate dehydrogenase measured as an increase in OD340 nm. An alkaline pH is necessary to drive the reaction equilibrium towards the production of NADH and acetoacetate.
This spectrophotometric assay was modified for application to a 96-well microplate format. The reaction rate was then determined from the increase in OD340 nm over a 1 minute time-course, after allowing a necessary period for the reaction rate to settle.

[2] = Ketogenic activity after intravenous injection: plasma β-hydroxybutyrate in rats (Ranbut assay); type: in vivo, rat; conditions: 300 mg/kg iv; for plasma concentration of β-hydroxybutyrate (increase to): 15 min after injection
Method: Male Sprague-Dawley rats (weight range 200-250 g) were obtained from Charles River, Margate, Kent.
The compounds were infused via the tail vein at 300 mg/kg (1 ml/kg) over a period of 1 to 2 min.
Animals were killed 15 min later by CO2 asphyxiation and blood was collected by cardiac puncture.

[3] = Dissolution in deionized water / water solubility; type: physicochemical; conditions: dissolved at 300 mg/ml in deionized water (KTX 0202: 300 mg/kg [sic])

Compound | maximum increase of plasma concentration of β-hydroxybutyrate [1] [mM] | magnitude of increase in plasma β-hydroxybutyrate compared with KTX 0101 ([1]; rats) | time at which plasma β-hydroxybutyrate was still significantly elevated ([1]; rats) [h] | time at which the maximum increase of plasma β-hydroxybutyrate was observed ([1]; rats) [min] | time by which plasma β-hydroxybutyrate returned to control values ([1]; rats) [h] | time until which plasma β-hydroxybutyrate plateaued at the maximum level ([1]; rats) [min] | plasma concentration of β-hydroxybutyrate (increase to) [2] [mM] | appearance of the solution [3] | pH of the solution [3] | biological half-life relative to KTX 0101 ([1]; rats) | oral bioavailability ([1]; rats) | bioavailability by the intravenous route [2] | increase of plasma β-hydroxybutyrate at 15 min, more than KTX 0101 ([2]; 15 min) [%]
1-3 butandiol, di-(tri(R)-3-hydroxybutyrate)ester [KTX 0203] | 0.4 | at least as great as those produced by KTX 0101 |  |  |  |  |  |  |  |  |  |  | 
C[C@@H]1CC(=O)O[C@H](C)CC(=O)O[C@H](C)CC(=O)O1 [(R)-3-β-hydroxybutyrate triolide, reference compound] | 0.5 | at least as great as that evoked by oral administration of the equivalent dose of KTX 0101 |  |  |  |  |  |  |  |  |  |  | 
C[C@@H](O)CC(=O)[O-].[Na+] [KTX 0101, sodium D-β-hydroxybutyrate, reference compound] | 0.4 |  | 1 | 15 | ≤ 2 | 30 | 1.0 | clear solution | 7.0 |  |  |  | 
CC(O)CCOC(=O)C[C@@H](C)OC(=O)C[C@@H](C)OC(=O)C[C@@H](C)O (stereo partly drawn) [KTX 0202, 1-(tri(R)-3-hydroxybutyryl-butane-1,3-diol) ester] | 0.4 | at least as great as those produced by KTX 0101 | 2 | 30 | ≤ 4 |  | 1.7 | slightly opaque solution | 6.0 | improved biological half-life relative to KTX 0101 | orally bioavailable | bioavailable when injected via the intravenous route | 60

From patent US7947736B2, “Oligomeric compounds” (BTG International Limited, priority 2004, dated 2011)
